According to US20100297156A1, “ANALOGUES OF PHOSPHATIDYLINOSITOL MANNOSIDES” (INDUSTRIAL RESEARCH LIMITED, priority 2006, published 2010):

What was measured:
[1] = test system: bovine dendritic cells (DC); assay: IL-12 induction in in vitro bovine dendritic cell (DC) assay, IL-12 ELISA; assay type: cell-based; details: 50 μg of each compound; supernatants collected 48 hours after stimulation
Method: Peripheral blood mononuclear cells (PBMCs) were isolated from heparinized blood of cattle by density-gradient centrifugation. Cells were adjusted to 10^7/ml in RPMI-1640 medium containing 10% heat-inactivated FCS, 10 mM HEPES, 5×10^−5 M 2-mercaptoethanol. Non-adherent cells were removed after 3 hours by washing with warm phosphate buffered saline (PBS). Adherent cells were then incubated in complete medium with 0.2 U/mI of recombinant bovine GM-CSF and 200 U/ml of recombinant bovine IL-4 (Both from Serotec, Oxford, UK), replenished daily. After 3-4 days, fresh media and cytokines were added to cells. Cells were harvested after 7-10 days of culture, washed three times and adjusted to desired cell numbers. […]
(§1) Plates (Maxisorp, Nunc, Denmark) were coated with 8 μg/ml anti-IL-12 (B @ D Pharmaceuticals) and incubated overnight at room temperature. […] Following the final washing step, TMB substrate was added, the reaction was stopped by the addition of H2SO4, and the absorbance values were read at 450 nm.
Th1 inducing activities of compounds 1.9 and 2.5 were tested in an in vitro bovine dendritic cell (DC) assay (FIG. 1). […] Supernatants were collected 48 hours after stimulation, and IL-12 levels measured.

[2] = test system: mouse dendritic cells (DC); assay: IL-12 induction in in vitro mouse dendritic cell (DC) assay, IL-12 ELISA; assay type: cell-based; details: 50 μg of each compound; supernatants collected 48 hours after stimulation
Method: Bone marrow contents of C57BU6 mice were obtained from the femurs, by flushing the inside of the bones with media (see below). Cells were then incubated in complete medium with 0.2 U/mI of recombinant GM-CSF and 200 U/ml of recombinant IL-4 (Both from Serotec, Oxford, UK), replenished daily. After 3-4 days, fresh media and cytokines were added to cells. Cells were harvested after 7-10 days of culture, washed three times and adjusted to desired cell numbers. When harvested, cells were more than 95% DCs based on the following: DCs lacked B and T cells markers had high expression of MHC class 2 and class 1 (Serotec), and had low expression of CD11a (Serotec) and CD14 (Serotec), and expressed CD11c (Serotec). […]
as §1
IL-10 and IL-12 inducing activities of compounds 1.9, 2.5, 3.5, 4,6, 5.3, 6.2, 7.10, 8.6, 9.2, and 10.3 were tested in an in vitro mouse dendritic cell (DC) assay (FIG. 2). […] Supernatants were collected 48 hours after stimulation, and IL-12 and IL-10 levels measured.

Row | Compound | Induction of IL-12 on bovine dendritic cells [1] | Induction of IL-12 on mouse dendritic cells [2]
1 | CCCCCCCCCCCCCCCCO[C@H](COC(=O)CCCCCCCCCCCCCCC)COP(=O)(O)O[C@@H]1C(O[C@H]2OC(CO)[C@@H](O)[C@H](O)C2O)C(O)[C@@H](O)[C@H](O)C1O[C@H]1OC(CO)[C@@H](O)C(O)[C@H]1O (stereo partly drawn) [Compound 1.9, 2,6-(Di-O-α-D-mannopyranosyl)-1-O-(1-O-hexadecanoyl-2-O-hexadecyl-sn-glycero-3-phosphoryl)-D-myo-inositol] | very high levels of IL-12 | the most potent inducing more IL-12 than the positive controls MPL and PAMCSK
2 | CCCCCCCCCCCCCCCCOC[C@H](COP(=O)(O)O[C@@H]1C(O[C@H]2OC(CO)[C@@H](O)[C@H](O)C2O)C(O)[C@@H](O)[C@H](O)C1O[C@H]1OC(CO)[C@@H](O)C(O)[C@H]1O)OC(=O)CCCCCCCCCCCCCCC (stereo partly drawn) [Compound 4.6, 2,6-(Di-O-α-D-mannopyranosyl)-1-O-(2-hexadecanoyl-1-O-hexadecyl-sn-glycero-3-phosphoryl)-D-myo-inositol] |  | the most potent inducing more IL-12 than the positive controls MPL and PAMCSK
